From US20150045410A1, “METHOD OF REGULATING CFTR EXPRESSION AND PROCESSING” (University of Iowa Research Foundation, priority 2012, published 2015)

Columns and labels:
CFTR [1] = assay: Transepithelial conductance and current (Ussing chamber) in polarized Calu-3 epithelia; format: cell-based; conditions: F&I stimulation, GlyH-101 inhibition
Protocol: Freshly dissociated human airway epithelial cells or immortalized cell lines were transfected in pre-coated 96 well plates (Costar) or Transwell™ Permeable Supports (0.33 cm^2 0.4 μm polyester membrane, Costar 3470). Lipofectamine™ RNAiMAX (Invitrogen) was used as a reverse transfection reagent. Pre-coated (with human placental collagen Type IV, Sigma) substrates were incubated with the transfection mix comprising of Opti-MEM (Invitrogen), oligonucleotide (Integrated DNA Technologies) and Lipofectamine™ RNAiMAX (Invitrogen). 15-20 minutes later, 200,000 freshly dissociated cells suspended in DMEM/F-12 were added to each well/insert. […]
Transepithelial Cl^− current measurements were made in Ussing chambers about 2 weeks post-seeding (Itani, 0. A. et al. Human cystic fibrosis airway epithelia have reduced Cl− conductance but not increased Na+ conductance. Proc. Natl. Acad. Sci. USA 108, 10260-10265 (2011)). […] Transepithelial Cl^− current was measured under short-circuit current conditions. […] After measuring baseline current, the transepithelial current (It) response to sequential apical addition of 100 μM amiloride (Amil), 100 μM 4,4′-diisothiocyanoto-stilbene-2,2′-disulfonic acid (DIDS), 4.8 mM [Cl^−], 10 μM forskolin and 100 μM 3-isobutyl-1-methylxanthine (IBMX), and 100 μM GlyH-101 was measured. […]

CFTR [2] = assay: CFTR mRNA and protein in polarized primary cultures of human airway epithelia; format: cell-based; conditions: mRNA 24 hrs, protein 72 hrs post-transfection
Protocol: Airway epithelia from human trachea and primary bronchus removed from organs donated for research were cultured at the air-liquid interface (ALI) (Karp, P. H. et al. An in vitro model of differentiated human airway epithelia. Methods for establishing primary cultures. Methods Mol. Biol. 188, 115-137 (2002)). These studies were approved by the Institutional Review Board of the University of Iowa. Briefly, airway epithelial cells were dissociated from native tissue by pronase enzyme digestion. Permeable membrane inserts (0.6 cm^2 Millipore-PCF, 0.33 cm^2 Costar-Polyester) pre-coated with human placental collagen (IV, Sigma) were seeded with freshly dissociated epithelia. […]
First-strand cDNA was synthesized using SuperScript® II (Invitrogen), and oligo-dT and random-hexamer primers. […] To quantitate miRNAs, TaqMan® microRNA Assays (Applied Biosystems) were obtained for miR-138, RNU48 (control) and 8 other miRNAs (negative control, miRs-21, -24, -26a, -200c, -146a, -146b, -27a*, -134). […] All experiments were performed in quadruplicate. mRNA and miRNA quantification in cell lines represents 8 independent transfections in 4 separate experiments. mRNA quantification in human primary airway epithelial cultures represent 8 independent transfections in 8 non-CF donors and 4 CF donors. […]

Row | Substance | CFTR-mediated conductance (Gt) and current (It) (CFTR [1]) | CFTR mRNA and protein levels (CFTR [2])
1 | miR-138 mimic: synthetic modified RNA duplex, sense SEQ ID NO: 4, antisense SEQ ID NO: 5, showing miR-138-like activity | increased | increased
2 | SIN3A DsiRNA: Dicer-substrate siRNA against SIN3A, sense SEQ ID NO: 6, antisense SEQ ID NO: 7 (sense GCGAUACAUGAAUUCAGAUACUACC; antisense GGUAGUAUCUGAAUUCAUGUAUCGCUC; chemistry not given here) | increased | increased
